Data: patent US20180057538A1, “POTENT AND HIGHLY SOLUBLE PEGYLATED COMPSTATIN PEPTIDES” (The Regents of the University of California, priority 2016, published 2018)
Where two headings read alike, the source gives them in different places. Positions of bridges follow the written chain, without caps; N, C: chain ends. Primed or numbered codes have the meaning given here. PEG8′ = 8 PEG blocks attached at the backbone of the C-terminal amino acid

What was measured:
[1] = system: complement activation; assay: Hemolytic assay (rabbit erythrocytes lysed by normal human serum in VBS-MgEGTA); assay type: cell-based; conditions: ligand concentration at 50% maximal inhibition, triplicate runs (N = 3)
Experimental: Rabbit erythrocytes (Complement Technology, Inc, Tyler, Tex., USA) were washed with PBS and then resuspended in a veronal-buffered saline solution containing 5 mM MgCl2 and 10 mM EGTA (VBS-MgEGTA). Two-fold serial dilutions of the compstatin analogs were performed in round-bottom 96-well plates and then further diluted in VBS-MgEGTA. Normal human serum (NHS; Complement Technology, Inc) diluted in VBS-MgEGTA was added to each well followed by incubation at ambient temperature for 15 minutes. Subsequently, 30 μL of rabbit erythrocytes at a concentration of 1.25×10^8 cells/mL were added to each well. Positive controls for lysis consisted of: (1) erythrocytes in deionized water and (2) erythrocytes in NHS diluted with VBS-MgEGTA. Negative controls for lysis consisted of: (1) erythrocytes in VBS-MgEGTA and (2) erythrocytes in NHS diluted in VBS-EDTA. Next, plates were incubated at 37° C. for 20 minutes and then ice cold VBS containing 50 mM EDTA was added to each well to quench hemolytic reactions. Plates were centrifuged at 1000×g for 5 minutes and the supernatant was diluted 1:1 with deionized water in flat-bottom 96-well plates. Absorbance was measured spectrophotometrically at 405 nm to quantify lysis.

[2] = Apparent solubility measurements in PBS pH 7.4; assay type: physicochemical; conditions: PBS pH 7.4, 5-10 mg/mL
Experimental: Compstatin analogs were dissolved in phosphate buffered saline (PBS) at pH 7.4 to concentrations of 10, 7.5, and 5 mg/mL. At each concentration point, the peptide solutions were vortexed for 30 seconds and then centrifuged at 13000×g for 5 minutes. The supernatant was collected and measured 5 times spectrophotometrically at 280 nm. Optical densities were converted into concentration according to Beer-Lambert law. An extinction coefficient of 11125 M^−1 cm^−1 was used for each compstatin analog since each peptide contains two tryptophan amino acids (tryptophan extinction coefficient being 5562.5 M^−1 cm^−1).

[3] = system: NHS-induced basal C5b-9n deposition by RPE cells; assay: Human RPE cell-based assay, anti-C5b-9n immunofluorescence of sub-RPE deposits; conditions: for reduction in NHS-induced basal C5b-9n deposition: 2 μM peptide, 10% NHS, 24 h, decellularized whole mounts, normalized to NHS-treated samples
Experimental: The in vitro model of drusen biogenesis was used according to Johnson et al. (Proceedings of the National Academy of Sciences of the United States of America 2011; 108(45):18277-82) and used in assessing the efficacy of compstatin peptides. Briefly, human fetal RPE cells within the second passage were grown on laminin-coated porous inserts (Millipore, Billerica, Mass., USA) in Miller medium supplemented with 5% fetal bovine serum (FBS, HyClone, Logan, Utah, USA) at 37° C. and 5% CO2 in a humidified incubator. After culturing for 2-3 months, cells were rinsed with PBS and treated with Miller medium containing either 5% FBS (negative control) or 10% NHS without or with the inhibitory peptides (2 μM). The choice of 2 μM dose for this assay was based on the intent to use double the IC50 concentration, which was determined to be ˜1 μM. All inhibitory peptides were pre-mixed with NHS on a rocker at room temperature for 30 min and then warmed to 37° C. prior to addition to RPE cell cultures for 24 h. […]
Immunolabeled RPE sections and decellularized culture inserts were imaged using a Leica SP5 confocal microscope. Single-plane images from multiple non-overlapping areas were acquired using a 63× objective, and C5b-9n (MAC) immunofluorescence signals were quantified using ImageJ (NIH), as described Gorham et al. (Experimental Eye Research 2013; 116:96-108). Briefly, the thresholding tool of ImageJ was used to analyze each color channel separately, with the upper threshold set to include C5b-9n-associated fluorescence and the lower threshold set to eliminate any background fluorescence. For statistical analysis, fluorescence intensity measurements of C5b-9n were averaged with respect to the number of RPE nuclei per image (for vibratome sections) or total image area (for decellularized whole-mount samples) and then expressed as a percentage of the corresponding fluorescence intensities from samples exposed to NHS in the absence of any inhibitory peptide (positive control). All data were obtained from multiple images (n≧9) and expressed as mean±SEM. […]

[4] = system: complement activation; conditions: alternative pathway-mediated erythrocyte lysis assay; cited from earlier work
[5] = target: complement C3 in normal human serum (human, UniProt P01024 23-1663); assay: cell-based or functional assay
Chain of complement C3 in normal human serum (P01024 23-1663 limits assumed): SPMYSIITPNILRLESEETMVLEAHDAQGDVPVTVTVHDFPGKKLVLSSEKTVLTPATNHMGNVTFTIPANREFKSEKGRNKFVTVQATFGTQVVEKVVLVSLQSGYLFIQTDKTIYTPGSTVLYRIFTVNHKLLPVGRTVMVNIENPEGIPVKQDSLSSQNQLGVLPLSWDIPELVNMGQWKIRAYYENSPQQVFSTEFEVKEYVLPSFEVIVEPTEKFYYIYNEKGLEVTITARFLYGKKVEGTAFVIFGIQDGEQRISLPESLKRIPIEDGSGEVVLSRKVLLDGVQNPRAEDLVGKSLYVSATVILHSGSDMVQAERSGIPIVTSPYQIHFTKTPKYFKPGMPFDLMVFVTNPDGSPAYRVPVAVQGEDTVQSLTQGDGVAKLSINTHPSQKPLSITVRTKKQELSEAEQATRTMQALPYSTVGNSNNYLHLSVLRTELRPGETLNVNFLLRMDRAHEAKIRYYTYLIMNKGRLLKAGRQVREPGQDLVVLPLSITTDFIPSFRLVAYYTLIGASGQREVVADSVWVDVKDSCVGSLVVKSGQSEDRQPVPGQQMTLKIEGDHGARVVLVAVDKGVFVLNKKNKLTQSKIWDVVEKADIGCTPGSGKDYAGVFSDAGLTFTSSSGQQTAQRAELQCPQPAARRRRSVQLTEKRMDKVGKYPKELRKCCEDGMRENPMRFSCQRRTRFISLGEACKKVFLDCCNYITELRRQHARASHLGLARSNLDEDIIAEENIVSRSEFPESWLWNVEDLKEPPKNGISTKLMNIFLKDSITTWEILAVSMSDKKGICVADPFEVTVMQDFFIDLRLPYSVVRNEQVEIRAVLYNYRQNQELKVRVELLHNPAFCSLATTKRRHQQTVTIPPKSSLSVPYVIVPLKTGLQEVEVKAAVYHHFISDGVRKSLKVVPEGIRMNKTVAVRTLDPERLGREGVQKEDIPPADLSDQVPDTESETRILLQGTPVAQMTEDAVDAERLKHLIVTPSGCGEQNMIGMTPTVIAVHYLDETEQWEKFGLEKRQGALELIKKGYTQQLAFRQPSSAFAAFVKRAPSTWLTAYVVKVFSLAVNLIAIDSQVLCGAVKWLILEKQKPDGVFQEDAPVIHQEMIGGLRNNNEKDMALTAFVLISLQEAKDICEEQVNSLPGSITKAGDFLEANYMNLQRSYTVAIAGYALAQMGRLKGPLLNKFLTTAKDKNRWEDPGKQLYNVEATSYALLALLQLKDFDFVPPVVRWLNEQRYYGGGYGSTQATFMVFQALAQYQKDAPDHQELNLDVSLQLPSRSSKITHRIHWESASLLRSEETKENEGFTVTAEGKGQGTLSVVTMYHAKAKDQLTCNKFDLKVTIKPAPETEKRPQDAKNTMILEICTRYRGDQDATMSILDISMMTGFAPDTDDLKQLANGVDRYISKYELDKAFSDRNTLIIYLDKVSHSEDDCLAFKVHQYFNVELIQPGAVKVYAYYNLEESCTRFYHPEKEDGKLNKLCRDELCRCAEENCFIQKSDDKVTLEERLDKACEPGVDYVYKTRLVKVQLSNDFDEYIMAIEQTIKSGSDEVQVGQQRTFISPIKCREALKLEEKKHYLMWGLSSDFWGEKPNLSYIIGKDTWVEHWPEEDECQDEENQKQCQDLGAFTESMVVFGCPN

[6] = target: T1, purified C3c (Complement Technology) (UniProt P01024 23-667; P01024 749-954; P01024 1321-1663, limits assumed); assay: competitive microscale thermophoresis (Monolith NT.115); Peptide 2 titrated against Cy5-labeled Competition Peptide on purified C3c
T1 construct: domain: C3c; C3c is a multi-chain proteolytic fragment of C3; also called complement protein C3c
T1 sequence (P01024 23-667 limits assumed, chain 1 of 3): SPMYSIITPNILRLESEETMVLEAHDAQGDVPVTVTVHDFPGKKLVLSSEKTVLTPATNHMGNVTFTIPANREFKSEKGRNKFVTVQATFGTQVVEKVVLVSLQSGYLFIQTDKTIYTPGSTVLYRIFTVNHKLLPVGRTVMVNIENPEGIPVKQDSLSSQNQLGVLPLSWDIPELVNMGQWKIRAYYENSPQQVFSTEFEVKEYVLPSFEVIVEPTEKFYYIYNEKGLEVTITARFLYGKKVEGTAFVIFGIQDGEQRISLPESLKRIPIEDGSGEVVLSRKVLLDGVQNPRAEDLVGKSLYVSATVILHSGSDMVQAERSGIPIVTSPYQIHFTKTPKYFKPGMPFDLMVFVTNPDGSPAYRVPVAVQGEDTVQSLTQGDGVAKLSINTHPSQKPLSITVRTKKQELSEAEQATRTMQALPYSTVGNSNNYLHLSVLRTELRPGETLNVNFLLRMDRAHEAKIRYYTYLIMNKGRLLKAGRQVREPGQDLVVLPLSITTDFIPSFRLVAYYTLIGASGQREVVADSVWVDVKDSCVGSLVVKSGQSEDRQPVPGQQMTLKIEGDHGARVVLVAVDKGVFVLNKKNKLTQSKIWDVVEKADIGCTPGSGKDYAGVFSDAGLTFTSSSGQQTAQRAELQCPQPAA
T1 sequence (P01024 749-954 limits assumed, chain 2 of 3): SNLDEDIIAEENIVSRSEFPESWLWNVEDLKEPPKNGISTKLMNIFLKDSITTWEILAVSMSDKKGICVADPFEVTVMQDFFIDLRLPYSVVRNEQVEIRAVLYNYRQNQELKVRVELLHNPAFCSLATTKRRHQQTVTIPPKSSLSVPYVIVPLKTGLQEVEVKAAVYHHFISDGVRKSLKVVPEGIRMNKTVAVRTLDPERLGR
T1 sequence (P01024 1321-1663 limits assumed, chain 3 of 3): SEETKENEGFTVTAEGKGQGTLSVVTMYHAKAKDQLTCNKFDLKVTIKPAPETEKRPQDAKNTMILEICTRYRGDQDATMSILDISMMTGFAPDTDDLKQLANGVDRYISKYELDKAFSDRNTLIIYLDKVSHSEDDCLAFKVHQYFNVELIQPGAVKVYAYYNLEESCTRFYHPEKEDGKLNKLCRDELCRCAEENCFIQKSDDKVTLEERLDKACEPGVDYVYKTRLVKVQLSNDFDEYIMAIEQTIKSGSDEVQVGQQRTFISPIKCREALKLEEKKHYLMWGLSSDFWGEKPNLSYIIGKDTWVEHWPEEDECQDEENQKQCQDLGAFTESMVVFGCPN
Experimental: (§1) The binding affinity of Peptide 2 was evaluated in a competitive microscale thermophoresis assay, using a Monolith NT.115 instrument (NanoTemper Technologies GmbH, Munich, Germany). Competition was performed against the Competition Peptide, labeled with Cy5 for signal detection. Two different 1:1 serial dilution series of Peptide 2 were performed in MST buffer (50 mM Tris-HCl, 150 mM NaCl, 10 mM MgCl₂, 0.05% Tween 20). The first dilution series started with a final concentration of 333 μM and ended in a final concentration of 40.69 nM, while the second dilution series started with a final concentration of 166.67 μM and ended in a final concentration of 20.35 nM. To each dilution series of Peptide 2, purified C3c (Complement Technology) and the Competition Peptide (unlabeled form) were dissolved to final concentrations of 117 nM (Peptide 2) and 50 nM (Competition Peptide). The resulting mixture was incubated for 15 minutes in the dark at room temperature. Following the incubation, the samples were loaded into hydrophilic capillary tubes and the thermophoretic response of the fluorescently labeled marker was measured. […]
(§2) The binding affinity of Peptide 2 to C3c was determined using the microscale thermophoresis assay described herein. […]

[7] = target: T1, purified C3c (Complement Technology); assay: competitive microscale thermophoresis: Peptide 2 titrated against C3c in the presence of the Cy5-labeled Competition Peptide, mean±SEM of 7 replicates
Experimental: The labeled form of the Competition Peptide was used. Thermophoretic data is plotted as mean±SEM from 7 replicate experiments, together with the fitted binding curve. The dotted lines in red indicate the 95% confidence interval of the fitted binding curve. The black dotted line represents the baseline thermophoretic response in the absence of binding. The inset table indicates the KD±SEM.
as §1, with “To each dilution series of Peptide 2, purified C3c (Complement Technology) and the Competition Peptide (unlabeled form) were dissolved to final concentrations of 117 nM (Peptide 2) and 50 nM (Competition Peptide). The resulting mixture was incubated for 15 minutes in the dark at room temperature.” left out
as §2

Molecule: CC[C@H](C)[C@H](NC(=O)[C@H](CO)NC(=O)[C@H](CCCNC(=N)N)NC(C)=O)C(=O)N[C@H]1CSSC[C@@H](C(=O)N[C@H](C(=O)NCCOCCOCCOCCOCCOCCOCCOCCOCCC(N)=O)[C@@H](C)O)NC(=O)[C@H](CCCNC(=N)N)NC(=O)[C@H](Cc2c[nH]cn2)NC(=O)[C@H](C)NC(=O)CNC(=O)[C@H](Cc2c[nH]c3ccccc23)NC(=O)[C@H](CC(=O)O)NC(=O)[C@H](CCC(N)=O)NC(=O)[C@H](Cc2c[nH]c3ccccc23)NC(=O)[C@H](C(C)C)NC1=O [Peptide 2, Ac-RSI[CVWQDWGAHRC]T-PEG8-NH2]
- IC50 [1]: 960 nM
- apparent solubility (comparison) [2]: significantly higher apparent solubility than the parent Peptide 1 and the Competition Peptide
- slope of correlation between calculated and observed concentrations ([2]; absorbance at 280 nm): 0.92
- reduction in NHS-induced basal C5b-9n deposition [3]: 80%
- inhibitory effect relative to parent Peptide 1 ([3]; formation of C5b-9-rich sub-RPE deposits): two-fold greater inhibitory effect

Molecule: CC[C@H](C)[C@H](N)C(=O)N[C@H]1CSSC[C@@H](C(=O)N[C@H](C(N)=O)[C@@H](C)O)NC(=O)[C@H](CCCN=C(N)N)NC(=O)[C@H](Cc2cnc[nH]2)NC(=O)[C@H](Cc2cnc[nH]2)NC(=O)CNC(=O)[C@H](Cc2c[nH]c3ccccc23)NC(=O)[C@H](CC(=O)O)NC(=O)[C@H](CCC(N)=O)NC(=O)[C@H](C(C)C)NC(=O)[C@H](C(C)C)NC1=O [compstatin, ICVVQDWGHHRCT]
- IC50 [4]: ~12900 nM

Molecule: Ac-RSI[CVWQDWGAHRC]T-NH2 (Ac-RSICVWQDWGAHRCT-NH2; disulfide 4-14) [Peptide 1, reference compound]
- reduction in NHS-induced basal C5b-9n deposition [3]: 50%

B1: Competition Peptide, unlabeled, Ac-I[CVWQDWGAHRC]TAGK-NH2 (peptide)
peptide: Ac-ICVWQDWGAHRCTAGK-NH2
modifications: disulfide 2-12
SMILES: CC[C@H](C)[C@H](NC(C)=O)C(=O)N[C@H]1CSSC[C@@H](C(=O)N[C@H](C(=O)N[C@@H](C)C(=O)NCC(=O)N[C@@H](CCCCN)C(N)=O)[C@@H](C)O)NC(=O)[C@H](CCCNC(=N)N)NC(=O)[C@H](Cc2c[nH]cn2)NC(=O)[C@H](C)NC(=O)CNC(=O)[C@H](Cc2c[nH]c3ccccc23)NC(=O)[C@H](CC(=O)O)NC(=O)[C@H](CCC(N)=O)NC(=O)[C@H](Cc2c[nH]c3ccccc23)NC(=O)[C@H](C(C)C)NC1=O
- Mean IC50, hemolytic assay (rabbit erythrocytes, normal human serum, alternative pathway) [5]: 1400 nM

B2: Peptide 2, Ac-RSI[CVWQDWGAHRC]T-PEG8-NH2 (peptide)
peptide: Ac-RSICVWQDWGAHRCT-{PEG8′-NH2}
modifications: disulfide 4-14
notes: Synthetic compstatin analog with an Arg-Ser N-terminal extension and a C-terminal PEG8; molecular mass 2279; also called PEGylated Peptide 2; PEGylated compstatin peptide
- Mean IC50, hemolytic assay (rabbit erythrocytes, normal human serum, alternative pathway) [5]: 960 nM
- Kd [6]: 690 nM
- IC50 (read off the curve) [7]: ~700 nM

Molecule: Ac-RSICVWQDWGAHRCT-NH2 (disulfide 4-14) [Peptide 1, Ac-RSI[CVWQDWGAHRC]T-NH2]
- Mean IC50, hemolytic assay (rabbit erythrocytes, normal human serum, alternative pathway) [5]: 970 nM
